According to ChEMBL document CHEMBL1201862, “PubChem BioAssay data set” (2004):
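These data come from cells grown in 96-well plates and exposed to compound for 48 hours at five concentrations. At the GI50, growth is halved.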 Calls of active or inactive are those of the source. Cut-off read from the data, not from the text of the source: active = GI50 up to about 1.1 µM and inactive = higher.

Legend:
Assay in all cases: inhibition of tumour cell growth, NCI panel, 48 h
786-0 = system: 786-0
ACHN = system: ACHN
CCRF-CEM = system: CCRF-CEM
HCC 2998 = system: HCC 2998
HL-60 = system: HL-60
HT-29 = system: HT-29
KM12 = system: KM12
M14 = system: M14
MOLT-4 = system: MOLT-4
Malme-3M = system: Malme-3M
OVCAR-3 = system: OVCAR-3
SK-MEL-28 = system: SK-MEL-28
SK-MEL-2 = system: SK-MEL-2
U-251 = system: U-251
UACC-62 = system: UACC-62

Measured: GI50

CCNC(=O)OCc1c(COC(=O)NCC)c(-c2ccc(Cl)c(Cl)c2)n2c1CCC2
inactive: 786-0 8.63 µM | ACHN 4.88 µM | CCRF-CEM 4.09 µM | HCC 2998 14.3 µM | HL-60 3.24 µM | HT-29 18.3 µM | KM12 25.9 µM | M14 11.1 µM | MOLT-4 5.06 µM | Malme-3M 16.6 µM | OVCAR-3 17.6 µM | SK-MEL-28 14.9 µM | SK-MEL-2 13.1 µM | U-251 10.5 µM | UACC-62 5.92 µM

Cc1ccc(C2=Nc3ccccc3NC(=O)C2)cc1
inactive: 786-0 77.8 µM | ACHN > 100 µM | CCRF-CEM 38 µM | HCC 2998 > 100 µM | HL-60 51.2 µM | HT-29 > 100 µM | KM12 > 100 µM | M14 > 100 µM | MOLT-4 > 100 µM | Malme-3M > 100 µM | OVCAR-3 > 100 µM | SK-MEL-28 > 100 µM | SK-MEL-2 > 100 µM | U-251 32.2 µM | UACC-62 > 100 µM

CC1(C)C(=O)OC(n2cc(F)c(=O)[nH]c2=O)C1=O (stereo not drawn)
inactive: 786-0 > 100 µM | ACHN > 100 µM | CCRF-CEM > 100 µM | HCC 2998 46.6 µM | HL-60 > 100 µM | HT-29 > 100 µM | KM12 > 100 µM | M14 > 100 µM | MOLT-4 > 100 µM | Malme-3M > 100 µM | OVCAR-3 > 100 µM | SK-MEL-28 > 100 µM | SK-MEL-2 > 100 µM | U-251 > 100 µM | UACC-62 > 100 µM

CC1CC2OC(=O)CC2C[C@@H]1O[Si](C)(C)C(C)(C)C (stereo partly drawn)
inactive: 786-0 80.9 µM | ACHN 43.9 µM | CCRF-CEM 36.8 µM | HCC 2998 43.3 µM | HL-60 20.6 µM | HT-29 40.5 µM | KM12 44.3 µM | M14 94.6 µM | MOLT-4 21.5 µM | Malme-3M 65.3 µM | OVCAR-3 40.4 µM | SK-MEL-2 83.4 µM | UACC-62 68.7 µM

CCC1=CCN(c2cc(C)ccn2)OC1c1ccccc1 (stereo not drawn)
inactive: 786-0 45.9 µM | ACHN 45.5 µM | CCRF-CEM 35.7 µM | HCC 2998 33.3 µM | HL-60 18.3 µM | HT-29 29.3 µM | KM12 30.9 µM | M14 31.3 µM | MOLT-4 34.5 µM | Malme-3M 26.5 µM | OVCAR-3 65.6 µM | SK-MEL-28 23.9 µM | SK-MEL-2 21.4 µM | U-251 22.8 µM | UACC-62 39.2 µM

COc1ccc(-c2cc(O)c3cc4c(cc3n2)OCO4)cc1
inactive: 786-0 73.1 µM | ACHN > 100 µM | CCRF-CEM > 100 µM | HCC 2998 > 100 µM | HL-60 > 100 µM | HT-29 > 100 µM | M14 > 100 µM | MOLT-4 > 100 µM | Malme-3M > 100 µM | OVCAR-3 > 100 µM | SK-MEL-28 > 100 µM | SK-MEL-2 > 100 µM | U-251 > 100 µM | UACC-62 > 100 µM

C=CCCOC(=O)CO[N+](=O)[O-]
inactive: 786-0 > 100 µM | ACHN > 100 µM | CCRF-CEM > 100 µM | HCC 2998 > 100 µM | HL-60 23.2 µM | HT-29 > 100 µM | KM12 > 100 µM | M14 > 100 µM | MOLT-4 > 100 µM | Malme-3M > 100 µM | OVCAR-3 > 100 µM | SK-MEL-28 > 100 µM | SK-MEL-2 > 100 µM | U-251 > 100 µM

CC(N)Cc1ccc(F)cc1 (stereo not drawn)
inactive: 786-0 > 100 µM | ACHN > 100 µM | CCRF-CEM > 100 µM | HCC 2998 > 100 µM | HL-60 > 100 µM | HT-29 > 100 µM | KM12 > 100 µM | M14 > 100 µM | MOLT-4 > 100 µM | Malme-3M > 100 µM | OVCAR-3 > 100 µM | SK-MEL-28 > 100 µM | SK-MEL-2 > 100 µM | U-251 > 100 µM | UACC-62 > 100 µM

COC(=O)C(Cc1nc2ccccc2nc1O)/C(=N\NC(C)(C)C)C(=O)Nc1c(C)cc(Br)cc1C (stereo not drawn)
inactive: 786-0 17.5 µM | ACHN 32.9 µM | CCRF-CEM 17.8 µM | HCC 2998 73.1 µM | HT-29 30.5 µM | KM12 41 µM | M14 21.8 µM | MOLT-4 1.5 µM | Malme-3M 27.6 µM | OVCAR-3 > 10 µM | SK-MEL-28 20 µM | SK-MEL-2 31 µM | U-251 19.2 µM | UACC-62 19 µM

NC(=O)COc1ccccc1
inactive: 786-0 > 100 µM | ACHN > 100 µM | CCRF-CEM > 100 µM | HCC 2998 > 100 µM | HL-60 > 100 µM | HT-29 > 100 µM | KM12 > 100 µM | M14 > 100 µM | MOLT-4 > 100 µM | Malme-3M > 100 µM | OVCAR-3 > 100 µM | SK-MEL-28 > 100 µM | SK-MEL-2 > 100 µM | U-251 > 100 µM | UACC-62 > 100 µM

CO/N=C/c1cc(OC)c(OC)c(OC)c1
inactive: 786-0 > 100 µM | ACHN > 100 µM | CCRF-CEM > 100 µM | HCC 2998 > 100 µM | HL-60 > 100 µM | HT-29 > 100 µM | KM12 > 100 µM | M14 > 100 µM | MOLT-4 > 100 µM | Malme-3M > 100 µM | OVCAR-3 > 100 µM | SK-MEL-28 > 100 µM | SK-MEL-2 > 100 µM | U-251 > 100 µM | UACC-62 > 100 µM

CN1CCC(C(=O)NNc2ccccc2)CC1
inactive: ACHN 2.66 µM | HCC 2998 5.22 µM | HL-60 2.65 µM | HT-29 7.53 µM | KM12 3.15 µM | M14 1.5 µM | MOLT-4 1.23 µM | Malme-3M 22.4 µM | OVCAR-3 16.9 µM | SK-MEL-28 17.1 µM | SK-MEL-2 9.02 µM | U-251 > 17.7 µM | UACC-62 2.48 µM

C=CC1[C@H]2COC(C)(C)O[C@@H]2CC(=O)C1(C)C (stereo partly drawn)
inactive: 786-0 72.9 µM | ACHN 94 µM | HCC 2998 > 100 µM | HL-60 > 100 µM | HT-29 > 100 µM | KM12 > 100 µM | M14 > 100 µM | Malme-3M > 100 µM | SK-MEL-28 > 100 µM | SK-MEL-2 > 100 µM | U-251 > 100 µM

COc1ccc(/C=C2\Cc3ccccc3C2=O)cc1OC
inactive: 786-0 > 100 µM | ACHN > 100 µM | CCRF-CEM > 100 µM | HCC 2998 > 100 µM | HT-29 > 100 µM | KM12 > 100 µM | M14 > 100 µM | MOLT-4 > 100 µM | Malme-3M > 100 µM | OVCAR-3 > 100 µM | SK-MEL-28 > 100 µM | SK-MEL-2 > 100 µM | U-251 > 100 µM | UACC-62 > 100 µM

NC1=NC(c2ccccc2)CC(c2cc(Cl)ccc2O)=N1 (stereo not drawn)
inactive: 786-0 16.1 µM | ACHN 15.3 µM | CCRF-CEM 22.1 µM | HCC 2998 15.9 µM | HL-60 16.1 µM | HT-29 17.5 µM | KM12 13.7 µM | M14 16.9 µM | MOLT-4 14.2 µM | Malme-3M 21.8 µM | OVCAR-3 17.5 µM | SK-MEL-28 18.7 µM | U-251 16.3 µM | UACC-62 15.8 µM

Nc1nc(N)c(CCCCc2ccccc2)c(C=O)n1
inactive: 786-0 15 µM | ACHN 22.5 µM | CCRF-CEM 10.6 µM | HCC 2998 26.5 µM | HT-29 9.62 µM | KM12 15.9 µM | M14 16.4 µM | Malme-3M 18.1 µM | OVCAR-3 14.3 µM | SK-MEL-28 15.9 µM | SK-MEL-2 20 µM | U-251 22.9 µM | UACC-62 15.2 µM

C=C1C(=O)O[C@H]2C[C@@H](C)[C@@H]3CC(=O)OC[C@@]3(C)CC12 (stereo partly drawn)
inactive: 786-0 21.2 µM | ACHN 21.7 µM | CCRF-CEM 12.9 µM | HCC 2998 32.1 µM | HT-29 17.5 µM | KM12 20.5 µM | M14 14.4 µM | MOLT-4 27.5 µM | Malme-3M 17.9 µM | OVCAR-3 28 µM | SK-MEL-28 19.7 µM | SK-MEL-2 35.8 µM | U-251 97.3 µM | UACC-62 19.2 µM

CSC1NC=Nc2c1sc(=S)n2-c1ccccc1 (stereo not drawn)
inactive: 786-0 > 100 µM | ACHN > 100 µM | HCC 2998 > 100 µM | HT-29 > 100 µM | KM12 > 100 µM | M14 > 100 µM | MOLT-4 > 100 µM | Malme-3M > 100 µM | OVCAR-3 54.1 µM | SK-MEL-28 > 100 µM | SK-MEL-2 > 100 µM | U-251 > 100 µM | UACC-62 > 100 µM

CC(C)=CCC/C(C)=C/CC/C(C)=C/CCC1(C)CCC([C@H](C)C(=O)O)OO1.CC1=C(CC/C(C)=C/CCC2(C)CCC([C@H](C)C(=O)O)OO2)C(C)(C)CCC1 (stereo partly drawn)
inactive: 786-0 > 100 µM | ACHN > 100 µM | HCC 2998 85.3 µM | HL-60 > 100 µM | HT-29 > 100 µM | KM12 > 100 µM | M14 > 100 µM | Malme-3M > 100 µM | OVCAR-3 > 100 µM | SK-MEL-28 > 100 µM | SK-MEL-2 > 100 µM | U-251 > 100 µM

CC(=O)Oc1ccc(CO)cc1OC(C)=O
inactive: 786-0 > 100 µM | ACHN > 100 µM | CCRF-CEM 27.6 µM | HL-60 24.5 µM | HT-29 > 100 µM | KM12 > 100 µM | M14 > 100 µM | MOLT-4 > 100 µM | Malme-3M > 100 µM | OVCAR-3 > 100 µM | SK-MEL-28 > 100 µM | SK-MEL-2 > 100 µM | U-251 > 100 µM | UACC-62 > 100 µM
